# Assay results as given in ChEMBL document CHEMBL1150465, “DNA topoisomerase II inhibition by substituted 1,2,3,4-tetrahydro--carboline derivatives” (Bioorg Med Chem Lett, 1994).
# The source made the active and inactive calls. The rule behind the calls is not given here.
# Tests used:
# [1] = molecular target: T1, DNA topoisomerase II (Homo sapiens) (UniProt P11388+Q02880); test: Compound was tested for DNA Topoisomerase II mediated cleavage of DNA; Each + indicates 2 to 4 fold increase; format: protein assay
# [2] = test system: Nucleic Acid; test: DNA intercalating activity was determined; Each (+) indicates 1 to 2 -fold increase; format: functional
# [3] = molecular target: T1, DNA topoisomerase II (Homo sapiens); test: Compound was tested for DNA Topoisomerase II mediated cleavage of DNA; inactive; format: protein assay
# [4] = test system: Nucleic Acid; test: DNA intercalating activity was determined; Each + indicates a 2 to 4 fold increase; format: functional
# [5] = molecular target: T1, DNA topoisomerase II (Homo sapiens); test: Compound was tested for DNA Topoisomerase II mediated cleavage of DNA; No increase; format: protein assay
# [6] = molecular target: T1, DNA topoisomerase II (Homo sapiens); test: Compound was tested for DNA Topoisomerase II mediated cleavage of DNA; Each (+) indicates 1 to 2 -fold increase; format: protein assay
smiles,measurement,setting,value
COc1cc(C2C3Nc4ccccc4C3CC3CCC(=O)N32)cc(OC)c1O (configuration not stated),Activity,[1],++
COC(=O)N1CCc2c([nH]c3ccccc23)C1c1cc(OC)c(O)c(OC)c1 (stereo in doubt; 5),Activity,[1],denotes 2 to 4 fold increase
same,Activity,[2],(+)
COC(=O)N1CCc2c([nH]c3ccccc23)C1c1ccc(O)cc1 (configuration not stated),Activity,[3],inactive
COC(=O)N1CCc2c([nH]c3ccccc23)C1c1cc(OC)c(O)c(OC)c1 (stereo in doubt; 4),Activity,[1],++(+)
same,Activity,[4],denotes 2 to 4 fold increase
COC(=O)N1CCc2cc3c(cc2C1c1cc(OC)c(O)c(OC)c1)OCO3 (configuration not stated),Activity,[5],No increase
COC(=O)N1CCc2c([nH]c3ccccc23)C1c1ccc(N)c(OC)c1 (configuration not stated),Activity,[6],+
COc1cc([C@@H]2c3cc4c(cc3[C@@H](O[C@@H]3O[C@@H]5CO[C@@H](C)O[C@H]5[C@H](O)[C@H]3O)[C@H]3COC(=O)[C@H]23)OCO4)cc(OC)c1O,Activity,[1],++
same,Activity,[2],(+)
COC(=O)N1CCc2c([nH]c3ccccc23)C1c1cc(OC)c(OC)c(OC)c1 (configuration not stated),Activity,[3],inactive
COC(=O)N1CCc2c([nH]c3ccccc23)C1c1ccc(NS(C)(=O)=O)c(OC)c1 (configuration not stated),Activity,[6],+
